Test results taken from patent US20070021414A1, “1-'2-(4-Hydroxyphenyl)-2-hydroxyethyl!-piperidin-4-ol compounds as nmda receptor antagonists” (PFIZER, INC., priority 2003, published 2007).
Counter-ions that a name gives are not always drawn.

tested on: not given; assay: not given; conditions: not given

melting point | SMILES
154.2 °C | Oc1ccc(C(O)CN2CCC(O)(c3cccc(F)c3)CC2)cc1 (stereo not drawn)
198.8 °C | COc1ccc(C2(O)CCN(CC(O)c3ccc(O)cc3)CC2)cn1 (stereo not drawn)
169.6 °C | COCc1ccc(C2(O)CCN(CC(O)c3ccc(O)cc3)CC2)cc1 (stereo not drawn)
164.4 °C | COCc1ccc(C2(O)CCN(CC(O)c3ccc(O)c(C)c3)CC2)cc1 (stereo not drawn)
161.7 °C | Cc1cc(C(O)CN2CCC(O)(c3cccc(F)c3)CC2)c(F)cc1O (stereo not drawn)
186.1 °C | Oc1ccc(C(O)CN2CCC(O)(c3cccc(F)c3)CC2)c(F)c1 (stereo not drawn)
207 °C | Oc1cc(F)c(C(O)CN2CCC(O)(c3cccc(F)c3)CC2)cc1F (stereo not drawn) (as salt: hydrochloride)

Further lines, the compound ahead of its results:

SMILES | melting point
Cc1cnc(C2(O)CCN(CC(O)c3ccc(O)c(C)c3)CC2)s1 (stereo not drawn) | 163.7 °C
COc1ccc(C2(O)CCN(CC(O)c3cc(C)c(O)cc3C)CC2)cn1 (stereo not drawn) | 156.5 °C
CCOc1ccc(C2(O)CCN(CC(O)c3ccc(O)c(C)c3)CC2)cn1 (stereo not drawn) | 189.3 °C
COCc1ccc(C2(O)CCN(CC(O)c3cc(C)c(O)cc3C)CC2)cc1 (stereo not drawn) | 166.3 °C
COc1ccc(C2(O)CCN(CC(O)c3cc(C)c(O)cc3F)CC2)cn1 (stereo not drawn) | 183.6 °C
COc1ccc(C2(O)CCN(CC(O)c3ccc(O)c(C)c3)CC2)nc1F (stereo not drawn) | 172.3 °C
CCCOc1ccc(C2(O)CCN(CC(O)c3ccc(O)c(C)c3)CC2)cn1 (stereo not drawn) | 187.4 °C
COc1ccc(C2(O)CCN(CC(O)c3ccc(O)c(Cl)c3)CC2)cn1.Cl (stereo not drawn) | 214.3 °C
COc1ccc(C2(O)CCN(CC(O)c3ccc(O)cc3Cl)CC2)cn1 (stereo not drawn) | 190.5 °C
Cc1cc(C(O)CN2CCC(O)(c3ccc4c(c3)COCC4)CC2)ccc1O (stereo not drawn) | 178.3 °C
COc1ccc(C2(O)CCN(CC(O)c3ccc(O)c(C)c3)CC2)cn1 (stereo not drawn) | 176 °C
Oc1ccc(C(O)CN2CCC(O)(c3ccc4c(c3)COCC4)CC2)c(F)c1 (stereo not drawn) | 186.1 °C
COc1ccc(C2(O)CCN(CC(O)c3cc(F)c(O)cc3F)CC2)cn1 (stereo not drawn) (as salt: hydrochloride) | 199.5 °C

biological target: T1, HERG potassium channel (Homo sapiens, UniProt Q12809); assay: Human Dofetilide Binding; conditions: ratio of [3H]-dofetilide binding Ki (HERG transfected HEK293S membranes) to NR2B binding Ki
T1 construct: expressed in transfected cells; host or cells: HEK293S cells (membrane homogenate)
Method: Human BERG transfected HEK293S cells were prepared and grown in-house. The collected cells were suspended in 50 mM Tris-HCl (pH 7.4 at 4° C.) and homogenized using a hand held Polytron PT 1200 disruptor set at full power for 20 sec on ice. The homogenates were centrifuged at 48,000×g at 4° C. for 20 min. The pellets were then resuspended, homogenized, and centrifuged once more in the same manner. The final pellets were resuspended in an appropriate volume of 50 mM Tris-HCl, 10 mM KCl, 1 mM MgCl2 (pH 7.4 at 4° C.), homogenized, aliquoted and stored at −80° C. until use. An aliquot of membrane fractions was used for protein concentration determination using BCA protein assay kit (PIERCE) and ARVOsx plate reader (Wallac).
Binding assays were conducted in a total volume of 200 μl in 96-well plates. Twenty μl of test compounds were incubated with 20 μl of [^3H]-dofetilide (Amersham, final 5 nM) and 160 μl of membrane homogenate (25 μg protein) for 60 minutes at room temperature. Nonspecific binding was determined by 10 μM dofetilide at the final concentration. Incubation was terminated by rapid vacuum filtration over 0.5% presoaked GF/B Betaplate filter using Skatron cell harvester with 50 mM Tris-HCl, 10 mM KCl, 1 mM MgCl2, pH 7.4 at 4° C. The filters were dried, put into sample bags and filled with Betaplate Scint. Radioactivity bound to filter was counted with Wallac Betaplate counter.

T1 sequence (Q12809 whole entry): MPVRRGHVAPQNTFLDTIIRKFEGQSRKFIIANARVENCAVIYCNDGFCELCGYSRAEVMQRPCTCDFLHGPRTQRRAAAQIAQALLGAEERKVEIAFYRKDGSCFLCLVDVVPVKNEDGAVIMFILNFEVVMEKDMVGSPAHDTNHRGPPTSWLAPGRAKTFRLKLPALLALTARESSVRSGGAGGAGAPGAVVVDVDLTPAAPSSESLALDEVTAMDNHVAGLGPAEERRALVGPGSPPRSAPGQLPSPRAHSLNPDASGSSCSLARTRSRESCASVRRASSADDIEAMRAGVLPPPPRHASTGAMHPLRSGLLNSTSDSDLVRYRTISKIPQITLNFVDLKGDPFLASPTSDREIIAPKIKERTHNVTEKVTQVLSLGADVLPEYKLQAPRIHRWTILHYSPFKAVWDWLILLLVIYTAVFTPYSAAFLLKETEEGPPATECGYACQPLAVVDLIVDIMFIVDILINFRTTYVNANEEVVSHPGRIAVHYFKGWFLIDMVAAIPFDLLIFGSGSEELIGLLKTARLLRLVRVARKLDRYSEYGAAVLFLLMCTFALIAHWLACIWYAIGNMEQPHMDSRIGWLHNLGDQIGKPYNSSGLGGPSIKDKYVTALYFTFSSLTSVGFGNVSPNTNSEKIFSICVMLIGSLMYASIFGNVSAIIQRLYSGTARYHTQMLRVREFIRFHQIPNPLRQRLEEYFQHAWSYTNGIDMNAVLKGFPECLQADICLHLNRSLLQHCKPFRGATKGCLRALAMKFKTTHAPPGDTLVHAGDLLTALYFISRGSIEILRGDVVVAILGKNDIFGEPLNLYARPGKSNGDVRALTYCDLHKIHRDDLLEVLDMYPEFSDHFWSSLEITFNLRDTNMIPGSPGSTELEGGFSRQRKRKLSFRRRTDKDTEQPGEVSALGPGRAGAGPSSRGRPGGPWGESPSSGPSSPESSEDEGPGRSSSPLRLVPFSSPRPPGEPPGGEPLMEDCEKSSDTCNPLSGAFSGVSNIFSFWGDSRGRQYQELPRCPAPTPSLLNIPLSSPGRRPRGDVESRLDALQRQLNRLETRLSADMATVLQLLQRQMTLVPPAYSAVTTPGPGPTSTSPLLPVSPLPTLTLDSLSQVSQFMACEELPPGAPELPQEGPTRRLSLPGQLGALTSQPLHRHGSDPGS

SMILES | TI (Dofetilide Binding Ki [μM]/NR2B Binding Ki [nM]×1000)
Cc1cc([C@H](O)[C@H](C)N2CCC(O)(c3ccc(F)cc3)CC2)ccc1O [comparative compound A] | 220
